Reference: article PMC10574185, “Encapsulation and Biological Activity of Hesperetin Derivatives with HP-β-CD” (Molecules, 2023)
Converted amounts (≈) assume the structure as drawn. Where two headings read alike, the source gives them in different places.

Experiments:
HaCaT cells = test: MTT cytotoxicity assay on HaCaT keratinocytes; assay type: cell-based, human; settings: for IC50: Homo sapiens, MTT
Protocol: HaCaT keratinocyte cells were exposed to chemical compounds at nine different concentrations (from 3.9 to 995.6 µg/mL) in four replicates of each concentration for 24 and 48 h.
All compounds were dissolved in sterile DMSO (Merck Life Science, Warsaw, Poland) and were sterile-filtered with 0.22 µm pore size sterile disposable syringe filters.
HaCaT cell line (the normal immortalised human keratinocytes) used in the study derived from the 35th passage (the original material created by Prof. Dr. Petra Boukamp and Dr. Norbert Fusenig) was purchased from Cell Line Service GmbH (Eppelheim, Germany). The cells were cultured and propagated as described previously.
The cytotoxicity was assessed with MTT assay according to methodology applied previously.
The following final concentrations (in four replicates per experiment) of the test compounds were tested (µg/mL): 3.9; 7.8; 15.6; 31.1; 62.2; 124.5; 248.9; 497.8, and 995.6. […] Three independent experiments were conducted. The vehicle was cells in the culture medium. The assay was conducted for 24 h and 48 h.

[1] = Phase solubility studies with HP-β-CD; assay type: physicochemical; settings: for solubility at 60 min: thermodynamic from solid
Protocol: The purpose of this part of the study was to determine the solubility of compounds of hesperetin and its Schiff bases (HHSB, HIN, and HTSC) in aqueous solution at different pHs and temperatures, and the effect of their inclusion in modified HP-β-CD on the aqueous solubility of these compounds at different pH values.
The effect of the presence of HP-β-CD at different temperatures (25, 37, and 60 °C) was determined by developing phase solubility diagrams.
In accordance with the methodology described in Section 3.4, excess amounts of each tested substance were added to aqueous solution with increasing concentration of HP-β-CD up to 16 mM, respectively, in 2 mL of 100 mM sodium acetate buffer (pH 3.6), 100 mM sodium phosphate buffer (pH 6.5) or 100 mM sodium borate buffer (pH 8.5).
Phase solubility studies were conducted according to [64] with some modifications. Excess amounts of each tested substance were added to aqueous solution with increasing concentration of HP-β-CD up to 16 mM, in 2 mL of 100 mM sodium acetate buffer (pH 3.6), 100 mM sodium phosphate buffer (pH 6.5), or 100 mM sodium borate buffer (pH 8.5), respectively. The samples were maintained in an ultrasonic bath at various temperatures (25, 37, and 60 °C) for 60 min to reach equilibrium. The aqueous solutions were then filtered through 0.45 µm acetate cellulose (CA) membrane filter and diluted. The tested compound concentration on each clear filtrate was spectrophotometrically determined by measuring at their wavelength maximum.
The complexation constant (Kc) between studied molecules and HP-β-CD was determined by using Equation (1):(1) Kc=slope/S0 (1−slope) where S0 means the water solubility of the studied substance, and “slope” means the slope of the phase solubility diagram.
Complexation efficiency was calculated from the slope of the phase solubility diagram using Equation (2):(2) CE=S0×Kc=slope/1−slope
The CE was also applied to evaluate the molar ratio in solution of tested systems using Equation (3):(3) Compound:HP−β−CD=1:(1+1/CE)

[2] = DPPH assay (antioxidant activity); settings: concentration 0.1 mg/mL, mean ± SD
Protocol: (§1) To evaluate the antioxidant ability of the tested systems, antioxidant analysis was performed. Antioxidants can scavenge hydroxyl radicals in two ways: by reacting directly with hydroxyl radicals (DPPH^•, ABTS^•+) or indirectly inhibiting the formation of hydroxyl radicals by chelating metal ions involved in the production of hydroxyl radicals. The antioxidant activity of the systems studied was investigated by using DPPH^• scavenging, ABTS^•+ scavenging ability, and Fe^2+-chelating ability. In this study, the antioxidant activity of pure hesperetin and its Schiff bases (HHSB, HIN, and HTSC) and HP-β-CD complexes were compared, and the positive control was Trolox.
The detailed methodology of DPPH assay was described in the previous paper by Sykuła et al..

[3] = ABTS^•+ radical cation decolorization assay; settings: concentration 0.1 mg/mL, mean ± SD
Protocol: as §1
Antioxidant activity using ABTS^•+ cation radical scavenging was determined according to a modified method. ABTS solution (2.5 mM) was mixed with 1.0 mM potassium persulfate solution and left at room temperature in the dark for 12-24 h. After this time, the absorbance of the finished ABTS^•+ solution was corrected with ethanol to 0.70 ± 0.02 at 745 nm. A total of 100 µL of the sample was reacted for 5 min with 2 mL of ABTS^•+ solution (A745 nm = 0.70 ± 0.02). The absorbance value of the reaction mixture was measured at 745 nm. […] Scavenging activity (%) = [1 − (Asample − Ablank)/Acontrol] × 100%(4) where Acontrol is the absorbance value of the control (ABTS^•+ solution with water), Ablank is the absorbance value of samples mixed with anhydrous ethanol, and Asample is the absorbance value of the added test sample to ABTS^•+ solution at 745 nm, respectively.

CE complexation efficiency ([1]; 25 °C, pH 3.6, with HP-β-CD): 34.7%
Kc complexation constant ([1]; 25 °C, pH 3.6, with HP-β-CD): 3221 ± 358 M⁻¹
increase of solubility with HP-β-CD ([1]; 25 °C, pH 6.5, HP-β-CD at 16 mM): five-fold
CE complexation efficiency ([1]; 25 °C, pH 6.5, with HP-β-CD): 248%
Kc complexation constant ([1]; 25 °C, pH 6.5, with HP-β-CD): 11933 ± 1949 M⁻¹
CE complexation efficiency ([1]; 25 °C, pH 8.5, with HP-β-CD): 80.4%
Kc complexation constant ([1]; 25 °C, pH 8.5, with HP-β-CD): 2513 ± 143 M⁻¹
CE complexation efficiency ([1]; 37 °C, pH 3.6, with HP-β-CD): 44.4%
Kc complexation constant ([1]; 37 °C, pH 3.6, with HP-β-CD): 3171 ± 887 M⁻¹
CE complexation efficiency ([1]; 37 °C, pH 6.5, with HP-β-CD): 25%
Kc complexation constant ([1]; 37 °C, pH 6.5, with HP-β-CD): 2280 ± 152 M⁻¹
CE complexation efficiency ([1]; 37 °C, pH 8.5, with HP-β-CD): 19%
Kc complexation constant ([1]; 37 °C, pH 8.5, with HP-β-CD): 1703 ± 163 M⁻¹
CE complexation efficiency ([1]; 60 °C, pH 3.6, with HP-β-CD): 34%
Kc complexation constant ([1]; 60 °C, pH 3.6, with HP-β-CD): 2566 ± 144 M⁻¹
CE complexation efficiency ([1]; 60 °C, pH 6.5, with HP-β-CD): 11%
Kc complexation constant ([1]; 60 °C, pH 6.5, with HP-β-CD): 1179 ± 888 M⁻¹
CE complexation efficiency ([1]; 60 °C, pH 8.5, with HP-β-CD): 37%
Kc complexation constant ([1]; 60 °C, pH 8.5, with HP-β-CD): 2365 ± 221 M⁻¹
solubility at 60 min ([1]; aqueous buffer, 25 °C, pH 3.6 sodium acetate buffer, without cyclodextrin, read-out: solubility without HP-β-CD (value in brackets) (converted)): 50 µM (≈ 15.1 µg/mL)
solubility at 60 min ([1]; aqueous buffer, 25 °C, pH 6.5 sodium phosphate buffer, without cyclodextrin, read-out: solubility without HP-β-CD (value in brackets) (converted)): 49 µM (≈ 14.8 µg/mL)
solubility at 60 min ([1]; aqueous buffer, 25 °C, pH 8.5 sodium borate buffer, without cyclodextrin, read-out: solubility without HP-β-CD (value in brackets) (converted)): 280 µM (≈ 84.6 µg/mL)
solubility at 60 min ([1]; aqueous buffer, 37 °C, pH 3.6 sodium acetate buffer, without cyclodextrin, read-out: solubility without HP-β-CD (value in brackets) (converted)): 80 µM (≈ 24.2 µg/mL)
solubility at 60 min ([1]; aqueous buffer, 37 °C, pH 6.5 sodium phosphate buffer, without cyclodextrin, read-out: solubility without HP-β-CD (value in brackets) (converted)): 85 µM (≈ 25.7 µg/mL)
solubility at 60 min ([1]; aqueous buffer, 37 °C, pH 8.5 sodium borate buffer, without cyclodextrin, read-out: solubility without HP-β-CD (value in brackets) (converted)): 98 µM (≈ 29.6 µg/mL)
solubility at 60 min ([1]; aqueous buffer, 60 °C, pH 3.6 sodium acetate buffer, without cyclodextrin, read-out: solubility without HP-β-CD (value in brackets) (converted)): 95 µM (≈ 28.7 µg/mL)
solubility at 60 min ([1]; aqueous buffer, 60 °C, pH 6.5 sodium phosphate buffer, without cyclodextrin, read-out: solubility without HP-β-CD (value in brackets) (converted)): 82 µM (≈ 24.8 µg/mL)
solubility at 60 min ([1]; aqueous buffer, 60 °C, pH 8.5 sodium borate buffer, without cyclodextrin, read-out: solubility without HP-β-CD (value in brackets) (converted)): 120 µM (≈ 36.3 µg/mL)
solubility at 60 min ([1]; 25 °C, pH 3.6 sodium acetate buffer, with HP-β-CD, read-out: S0 (solubility with HP-β-CD)): 108 ± 4 µM (≈ 32.6 µg/mL)
solubility at 60 min ([1]; 25 °C, pH 6.5 sodium phosphate buffer, with HP-β-CD, read-out: S0 (solubility with HP-β-CD)): 208 ± 110 µM (≈ 62.9 µg/mL)
solubility at 60 min ([1]; 25 °C, pH 8.5 sodium borate buffer, with HP-β-CD, read-out: S0 (solubility with HP-β-CD)): 320 ± 32 µM (≈ 96.7 µg/mL)
solubility at 60 min ([1]; 37 °C, pH 3.6 sodium acetate buffer, with HP-β-CD, read-out: S0 (solubility with HP-β-CD)): 140 ± 40 µM (≈ 42.3 µg/mL)
solubility at 60 min ([1]; 37 °C, pH 6.5 sodium phosphate buffer, with HP-β-CD, read-out: S0 (solubility with HP-β-CD)): 110 ± 30 µM (≈ 33.3 µg/mL)
solubility at 60 min ([1]; 37 °C, pH 8.5 sodium borate buffer, with HP-β-CD, read-out: S0 (solubility with HP-β-CD)): 110 ± 10 µM (≈ 33.3 µg/mL)
solubility at 60 min ([1]; 60 °C, pH 3.6 sodium acetate buffer, with HP-β-CD, read-out: S0 (solubility with HP-β-CD)): 130 ± 20 µM (≈ 39.3 µg/mL)
solubility at 60 min ([1]; 60 °C, pH 6.5 sodium phosphate buffer, with HP-β-CD, read-out: S0 (solubility with HP-β-CD)): 96 ± 9 µM (≈ 29 µg/mL)
solubility at 60 min ([1]; 60 °C, pH 8.5 sodium borate buffer, with HP-β-CD, read-out: S0 (solubility with HP-β-CD)): 150 ± 27 µM (≈ 45.3 µg/mL)
SMILES: COc1ccc(C2CC(=O)c3c(O)cc(O)cc3O2)cc1O (stereo not drawn) [Hesperetin, 3′,5,7-Trihydroxy-4′-methoxyflavanone]
Non-cytotoxic concentration (IC0) (HaCaT cells; 48 h exposure): ≤ 3.9 µg/mL
IC50 (HaCaT cells; 24 h exposure, read-out: IC50 After 24 h): 221 µg/mL (≈ 731 µM)
IC50 (HaCaT cells; 48 h exposure, read-out: IC50 After 48 h): 150 µg/mL (≈ 496 µM)
DPPH antioxidant activity [2]: 38.08 ± 2.7%
ABTS^•+ antioxidant activity [3]: 77.42 ± 2.2%
